Legend:
Assay type in all cases: cell-based, human
eNOS [1] = experiment: Western blot of eNOS protein content in HDMECs
Text: (§1) Adulte humane mikrovaskuläre Endothelzellen der Haut (HDMECs) wurden 2023 von Lonza Ltd (Basel, Schweiz) erworben und kultiviert in EBM™-2 Endothelial Cell Growth Basal Medium, ergänzt mit EGM™-2 MV Microvascular Endothelial SingleQuots™ Kit (beide von Lonza Ltd, Basel, Schweiz), enthaltend humanen epidermalen Wachstumsfaktor, vaskulären Endothelial Growth Factor, R^3-Insulin-like Growth Factor-1, Ascorbinsäure, Hydrocortison, humanen Fibroblasten-Wachstumsfaktor-Beta, fötales Rinderserum und Gentamicin/Amphotericin-B und gemäß den Richtlinien des Herstellers kultiviert. Die HDMECs wurden von 2 verschiedenen weiblichen Spendern initiiert und es wurden die Passagen 4 bis 8 wurden für die Experimente verwendet.
HDMECs wurden in 6-Well-Platten ausgesät und für 24 Stunden mit DMG-Na (0,005% und 0,05%) behandelt. Nach der Behandlung wurden die Zellen in Lysispuffer (30 mM TRIS, pH 7,6, 140 mM NaCl, 5 mM EDTA, 50 mM NaF, 1 mM Na3VO4), der mit Proteaseinhibitoren ergänzt wurde, geerntet. Nach kräftigem Vortexen und Zentrifugieren wurde der Proteingehalt der Proben unter Verwendung des Pierce BCA Protein Assay Kits (Thermo Fisher Scientific, Waltham, MA) bestimmt. Gleiche Mengen an Proteinproben wurden einer 7,5%-igen SDS-PAGE unterzogen und auf Nitrocellulose-Membranen (Bio-Rad Laboratories, Hercules, CA) übertragen. […]

eNOS [2] = experiment: Immunocytochemistry of eNOS expression in HDMECs; conditions: semiquantitative immunocytochemistry, 24 h treatment, DMG-Na 0,005%, 0,02% and 0,05%
Text: as §1
HDMECs (5.000 Zellen pro 10 mm runde Glasdeckgläser), die mit DMG-Na (0,005%, 0,02% und 0,05%) behandelt wurden, wurden in 1% Paraformaldehyd (PFA, Merck KGaA, Darmstadt) für 10 Minuten bei Raumtemperatur fixiert und nach einem Waschschritt mit phosphatgepufferter Kochsalzlösung (PBS, Merck KGaA) für 5 Minuten mit -20 °C kalter Ethanol-Essigsäure (2:1) nachfixiert. […]

HDMECs = experiment: Microfluorimetric measurement of NO (DAF-FM DA) in HDMECs; conditions: DAF-FM-DA microfluorimetry, increase vs control
Text: as §1
HDMECs wurden mit einer Dichte von 15.000 Zellen pro Well in einer schwarzen 96-WellPlatte mit klarem Boden (Greiner Bio-One, Kremsmünster, Österreich) ausgesät und in Wachstumsmedium bei 37 °C für 24 Stunden kultiviert. Anschließend wurden die Zellen mit 5 µM DAF-FM DA (4-Amino-5-methylamin-2',7'-difluororesceindiacetat) in phenolrotfreiem DMEM (beides von Thermo Fisher Scientific, Waltham, MA), ergänzt mit 0,5% FBS (Serana Europe GmbH, Brandenburg, Deutschland) für 1 Stunde bei 37 °C inkubiert. […]

## CN(C)CC(=O)O [DMG-Na, N,N-Dimethylglycin-Natriumsalz]
eNOS [1]; 24 h, 0,05% DMG-Na, increase vs control, p=0,0189
  Proteingehalt von eNOS: statistisch signifikant
eNOS [1]; 24 h, DMG-Na 0,005% and 0,05%, vs control
  Proteingehalt von eNOS: dosisabhängig
eNOS [2]
  Expression von eNOS: Expression von eNOS nach 24-stündiger Behandlung zu erhöhen
HDMECs; 0.02%, p=0,0002
  zelluläre NO-Produktion: statistisch signifikant
HDMECs; 0.05%, p=0,0001
  zelluläre NO-Produktion: statistisch signifikant

From patent publication EP4599827A1, “DGL FOR THE INDUCTION OF ENDOTHELIAL-DERIVED NO-DEPENDENT VASODILATION” (Dr. Kurt Wolff GmbH & Co. KG, priority 2024, dated 2025)
